According to patent US11414387B2, “Oxoacridinyl acetic acid derivatives and methods of use” (Stingthera, Inc., priority 2017, dated 2022):

Tests used:
[1] = biological target: mSTING (Mus musculus, UniProt Q3TBT3); assay: Radiometric filtration binding competition assay, mSTING
[2] = biological target: hSTING-WT (Homo sapiens (Human), UniProt Q86WV6, H232R); assay: Radiometric filtration binding competition assay, hSTING-WT
[3] = biological target: hSTING-R232 (Homo sapiens (Human), UniProt Q86WV6, H232R); assay: STING differential scanning fluorimetry (DSF) assay, WT human STING; settings: WT (R232) human STING aa140-379, net shift in melting temperature
[4] = biological target: STING protein (Homo sapiens (Human), UniProt Q86WV6, H232R); assay: Cell based reporter assay of IRF activation (IRF-luciferase), THP1-dual-KI R232; settings: read-out: THP1-dual-KI R232_IRF(Luciferase)_Activity Maximum measured (%)
Description: Briefly, THP-1 monocytes were transfected and selected for stable integration of 2 reporter constructs. Clones incorporating stably integrated vectors were further selected by antibiotic resistance to blastocidin and zeocin. The reporter constructs included: (1) firefly luciferase reporter gene under the control of an ISG54 promoter fused to five interferon (IFN)-stimulated response elements to measure IRF transcription factor binding activity and (2) secreted embryonic alkaline phosphatase reporter gene under transcription control of an IFN-beta minimal promoter fused to 5 copies of the NFkB consensus transcriptional response element and 3 copies of the c-Rel binding site.
The resulting THP-1 cell line was further modified to incorporate 3 amino acid point mutations (H71R A230G Q293R). This modification of the native TMEM173 gene in THP-1 cells (HAQ) was designed to produce a cell reporter that expressed the most common allelic variant in the human population (THP-1 R232, available from InvivoGen). Alternatively, the TMEM173 gene was knocked out to provide a congenic control to counter-screen for compound activation that was independent of the STING protein (THP-1 STING KO).
Once cell lines were established, reporter assay protocols were developed and optimized to screen small molecule compounds for agonist activity. Assay optimization for efficacy and Z′ value included titration of the following parameters:
• 1. Cell pre-activation with PMA • 2. Cell seeding density • 3. DMSO tolerance • 4. Media selection • 5. FBS concentration • 6. Incubation time • 7. Co-Assessment of cell viability by CTG assay • 8. Appropriate HPE and ZPE controls • 9. Dose Response Titration Final Assay SOP Conditions • 1. No pre-activation with PMA • 2. 5×10^4 cells/well in 96 well plate format • 3. <0.5% DMSO • 4. […] 10% FBS • 6. 14-18 hr incubation • 7. Cell Titer Glo reagent (Promega) following supernatant removal • 8.

[5] = biological target: mSTING-R232 (Mus musculus, UniProt Q3TBT3); assay: STING differential scanning fluorimetry (DSF) assay, mouse STING; settings: net shift in melting temperature

Chain of hSTING-R232 (Q86WV6 140-379 H232R): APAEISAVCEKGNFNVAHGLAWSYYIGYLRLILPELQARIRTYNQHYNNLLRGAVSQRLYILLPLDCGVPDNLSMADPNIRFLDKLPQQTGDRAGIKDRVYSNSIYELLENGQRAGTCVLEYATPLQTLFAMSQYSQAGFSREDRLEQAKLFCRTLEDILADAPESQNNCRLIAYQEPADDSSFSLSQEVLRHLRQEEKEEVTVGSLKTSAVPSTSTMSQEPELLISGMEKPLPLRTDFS
Chain of hSTING-WT (Q86WV6 140-379 H232R): as above
Chain of STING protein (Q86WV6 whole entry H232R): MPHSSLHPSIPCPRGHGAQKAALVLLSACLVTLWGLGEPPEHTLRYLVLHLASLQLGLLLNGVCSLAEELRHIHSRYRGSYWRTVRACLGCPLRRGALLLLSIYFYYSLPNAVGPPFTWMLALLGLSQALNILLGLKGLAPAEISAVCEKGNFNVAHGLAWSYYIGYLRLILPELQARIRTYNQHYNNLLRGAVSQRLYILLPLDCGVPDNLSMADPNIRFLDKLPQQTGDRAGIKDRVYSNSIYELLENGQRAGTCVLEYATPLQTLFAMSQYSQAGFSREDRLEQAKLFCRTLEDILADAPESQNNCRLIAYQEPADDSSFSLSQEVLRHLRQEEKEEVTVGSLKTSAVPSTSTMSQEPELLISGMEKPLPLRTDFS

SMILES | IC50 [1] | IC50 [2] | WT_DSF_hSWAT Tm Shift (° C.) [3] | Emax [4] | MOUSE DSF_6xHIS-SUMO Tm Shift (° C.) [5]
C#CCOc1c(Cl)ccc2c(=O)c3ccccc3n(CC(=O)O)c12 [Compound 272] | > 300 µM | 100 to 300 µM | B (“B” = 0-2° C.) | < 5% | –
CSc1c(Cl)ccc2c(=O)c3ccc(C)cc3n(CC(=O)O)c12 [Compound 279] | 20 to 100 µM | 20 to 100 µM | D (“D” > 7° C.) | > 50% | –
CC(C(=O)O)n1c2ccccc2c(=O)c2ccc(Cl)c(Cl)c21 (stereo not drawn) [Compound 141] | – | > 300 µM | – | – | A (“A” < 0° C.)
COc1c(Cl)ccc2c(=O)c3cc(N)c(C(C)C)cc3n(CC(=O)O)c12 [Compound 320] | > 300 µM | 100 to 300 µM | A (“A” < 0° C.) | < 5% | –
O=C(O)Cn1c2ccccc2c(=O)c2ccc(Cl)c(Oc3nccc4ccccc34)c21 [Compound 243] | 100 to 300 µM | 20 to 100 µM | A (“A” < 0° C.) | < 5% | –
O=C(O)Cn1c2cc(-c3ccoc3)ccc2c(=O)c2ccc(Cl)c(Cl)c21 [Compound 183] | 20 to 100 µM | 20 to 100 µM | C (“C” = 2-7° C,) | 25 to 50% | –
[N-]=[N+]=NCc1c(Cl)ccc2c(=O)c3ccccc3n(CC(=O)O)c12 [Compound 305] | > 300 µM | > 300 µM | B (“B” = 0-2° C.) | < 5% | –
COc1c(Cl)ccc2c(=O)c3ccc(C(C)C)cc3n(CC(=O)NS(=O)(=O)C(F)(F)F)c12 [Compound 261] | 20 to 100 µM | 20 to 100 µM | C (“C” = 2-7° C,) | < 5% | –
O=C(O)Cn1c2cc(C(F)(F)F)ccc2c(=O)c2ccc(Cl)c(Cl)c21 [Compound 165] | – | > 300 µM | B (“B” = 0-2° C.) | – | C (“C” = 5-15° C.)
COc1cc(Cl)c(OC)c2c1c(=O)c1ccccc1n2CC(=O)O [Compound 313] | > 300 µM | > 300 µM | B (“B” = 0-2° C.) | < 5% | –
Cc1ccc2c(=O)c3ccc(Cl)c(OCc4ccccc4)c3n(CC(=O)O)c2c1 [Compound 285] | 20 to 100 µM | 20 to 100 µM | D (“D” > 7° C.) | 25 to 50% | –
COc1c(Cl)ccc2c(=O)c3ccc(-c4cccc(N)c4)cc3n(CC(=O)O)c12 [Compound 275] | < 20 µM | 20 to 100 µM | D (“D” > 7° C.) | > 50% | –
CSc1c(Cl)ccc2c(=O)c3ccc(Nc4ncccn4)cc3n(CC(=O)O)c12 [Compound 276] | < 20 µM | < 20 µM | D (“D” > 7° C.) | > 50% | –
C[C@H](Oc1c(Cl)ccc2c(=O)c3ccccc3n(CC(=O)O)c12)c1ccccc1 [Compound 295] | > 300 µM | 100 to 300 µM | A (“A” < 0° C.) | < 5% | –
Cc1ccc2c(=O)c3ccc(Cl)cc3n([C@@H](C)C(=O)O)c2c1 [Compound 180] | – | 20 to 100 µM | A (“A” < 0° C.) | – | B (“B” = 0-5° C.)
NC(=O)Cn1c2ccccc2c(=O)c2ccc(Cl)c(Cl)c21 [Compound 146] | – | – | – | – | B (“B” = 0-5° C.)
COc1c(Cl)ccc2c(=O)c3ccc(C4CCCOC4)cc3n(CC(=O)O)c12 (stereo not drawn) [Compound 253] | 20 to 100 µM | 20 to 100 µM | D (“D” > 7° C.) | > 50% | –
COc1c(Cl)ccc2c(=O)c3cc(Br)c(C(C)C)cc3n(CC(=O)O)c12 [Compound 268] | 100 to 300 µM | 20 to 100 µM | C (“C” = 2-7° C,) | > 50% | –
C[C@@H](Oc1c(Cl)ccc2c(=O)c3ccccc3n(CC(=O)O)c12)c1ccccc1 [Compound 296] | > 300 µM | > 300 µM | A (“A” < 0° C.) | < 5% | –
O=C(O)Cn1c2ccccc2c(=O)c2ccc(F)c(Br)c21 [Compound 173] | – | > 300 µM | B (“B” = 0-2° C.) | – | C (“C” = 5-15° C.)
CCOc1c(Cl)ccc2c(=O)c3ccc(C)cc3n(CC(=O)OC)c12 [Compound 322] | > 300 µM | > 300 µM | B (“B” = 0-2° C.) | 5 to 25% | –
C[C@H](O)COc1c(Cl)ccc2c(=O)c3ccccc3n(CC(=O)O)c12 [Compound 302] | > 300 µM | > 300 µM | A (“A” < 0° C.) | < 5% | –
CCSc1c(Cl)ccc2c(=O)c3ccc(C)cc3n(CC(=O)O)c12 [Compound 304] | < 20 µM | 20 to 100 µM | D (“D” > 7° C.) | > 50% | –

SMILES | IC50 [1] | IC50 [2] | WT_DSF_hSWAT Tm Shift (° C.) [3] | Emax [4] | MOUSE DSF_6xHIS-SUMO Tm Shift (° C.) [5]
CSc1c(Cl)ccc2c(=O)c3ccc(C(C)C)cc3n(CC(=O)O)c12 [Compound 281] | < 20 µM | < 20 µM | D (“D” > 7° C.) | > 50% | –
O=C(O)Cn1c2cc(C3=CCC(O)CC3)ccc2c(=O)c2ccc(Cl)c(Cl)c21 (stereo not drawn) [Compound 213] | 20 to 100 µM | 100 to 300 µM | C (“C” = 2-7° C,) | – | –
COc1c(Cl)ccc2c(=O)c3ccc(Nc4ccccc4OC(F)(F)F)cc3n(CC(=O)O)c12 [Compound 286] | < 20 µM | < 20 µM | D (“D” > 7° C.) | > 50% | –
O=C(O)Cn1c2ccccc2c(=O)c2ccc(Cl)c(-c3ccccc3)c21 [Compound 256] | 20 to 100 µM | 100 to 300 µM | C (“C” = 2-7° C,) | – | –
O=C(O)Cn1c2cc(N3CCCCC3)ccc2c(=O)c2ccc(Cl)c(Br)c21 [Compound 198] | 100 to 300 µM | 100 to 300 µM | C (“C” = 2-7° C,) | – | –
CCOC(=O)Cn1c2cc(C)ccc2c(=O)c2ccc(Cl)c(OCC)c21 [Compound 321] | > 300 µM | > 300 µM | B (“B” = 0-2° C.) | 5 to 25% | –
COc1c(Cl)c(O)cc2c(=O)c3ccccc3n(CC(=O)O)c12 [Compound 315] | > 300 µM | > 300 µM | B (“B” = 0-2° C.) | < 5% | –
CC(C)Sc1c(Cl)ccc2c(=O)c3ccc(C(C)(C)C)cc3n(CC(=O)O)c12 [Compound 290] | 20 to 100 µM | < 20 µM | D (“D” > 7° C.) | 25 to 50% | –
COc1c(Cl)ccc2c(=O)c3cc(O)c(C(C)C)cc3n(CC(=O)O)c12 [Compound 317] | > 300 µM | > 300 µM | B (“B” = 0-2° C.) | < 5% | –
CSc1c(Cl)ccc2c(=O)c3ccc(-c4ccc(O)cc4)cc3n(CC(=O)O)c12 [Compound 271] | < 20 µM | < 20 µM | D (“D” > 7° C.) | > 50% | –
Cc1c(C(C)C)ccc2c(=O)c3ccc(Cl)c(Cl)c3n(CC(=O)O)c12 [Compound 193] | > 300 µM | 20 to 100 µM | A (“A” < 0° C.) | – | –
C=CCOc1c(Cl)ccc2c(=O)c3ccccc3n(CC(=O)O)c12 [Compound 273] | 20 to 100 µM | 20 to 100 µM | C (“C” = 2-7° C,) | > 50% | –
Cc1ccc2c(=O)c3ccc(Cl)c(Cl)c3n(CC(=O)O)c2c1C [Compound 134] | – | 20 to 100 µM | A (“A” < 0° C.) | < 5% | –
CCCOc1c(Cl)ccc2c(=O)c3ccccc3n(CC(=O)O)c12 [Compound 284] | – | > 300 µM | C (“C” = 2-7° C,) | 5 to 25% | –
COc1c(Cl)c(N)cc2c(=O)c3ccccc3n(CC(=O)O)c12 [Compound 316] | > 300 µM | > 300 µM | B (“B” = 0-2° C.) | < 5% | –
COc1c(Cl)ccc2c(=O)c3cc(N(C)C)c(C(C)C)cc3n(CC(=O)O)c12 [Compound 319] | > 300 µM | > 300 µM | A (“A” < 0° C.) | < 5% | –
O=C(O)Cn1c2ccccc2c(=O)c2ccc(Cl)c(Oc3ccccc3)c21 [Compound 287] | – | > 300 µM | B (“B” = 0-2° C.) | < 5% | –
CONC(=O)Cn1c2cc(C)ccc2c(=O)c2ccc(Cl)c(OC)c21 [Compound 339] | – | > 300 µM | B (“B” = 0-2° C.) | 25 to 50% | –
O=C(O)Cn1c2cc(Cl)ccc2c(=O)c2ccc(Nc3ccccc3)cc21 [Compound 301] | < 20 µM | 20 to 100 µM | C (“C” = 2-7° C,) | < 5% | –
CCS(=O)(=O)NC(=O)Cn1c2cc(C)ccc2c(=O)c2ccc(Cl)c(OC)c21 [Compound 349] | – | > 300 µM | C (“C” = 2-7° C,) | > 50% | –
C[C@H]1CCCN1c1ccc2c(=O)c3ccc(Cl)c(Br)c3n(CC(=O)O)c2c1 [Compound 202] | – | 20 to 100 µM | C (“C” = 2-7° C,) | 5 to 25% | –
CCCCCCOc1c(Cl)ccc2c(=O)c3ccccc3n(CC(=O)O)c12 [Compound 303] | 100 to 300 µM | 20 to 100 µM | C (“C” = 2-7° C,) | 5 to 25% | –
